Converted amounts (≈) assume the structure as drawn. “And” between values parts separate entries of the source, which are not always exact repeats. Equal values may be shown once. Read-outs that look alike come from different tables or passages of the source.
Columns and labels:
[1] = Solubility in water, methanol, cyclohexane and ethyl acetate by HPLC; format: physicochemical
Protocol: (§1) Mobile phase: acetonitrile-methanol (1 : 1); flow rate: 1.0 ml min^−1; injection volume: 20 µl; wavelength: 230 nm or 254 nm; column temperature: 25°C.
Five millilitres of water, methanol, cyclohexane and ethyl acetate was added to test tubes, and then samples (DD4 or DD5) were added. These solutions were shaken at constant temperature (37 ± 0.1)°C for 48 h. The supernatant was taken to determine its solubility with HPLC [14]. Solutions of tested sample beyond the linear concentration range were diluted with methanol for determination.

[2] = Apparent lipid-water (n-octanol/water) partition coefficient by HPLC; format: physicochemical; set-up: key: —: Cannot be detected
Protocol: as §1
DD4 (5.1 mg) was dissolved in 50 ml of water-saturated n-octanol solution to prepare a solution with a concentration of 102 mg l^−1. Solution (2 ml) and water-saturated n-octanol solution (2 ml) were added to a plugged 10 ml tube. The prepared sample solution was placed in a shaker and shaken to equilibrium overnight in the dark at constant temperature (37 ± 0.1)°C. The lower aqueous phase was taken and analysed by HPLC after centrifugation at a speed of 3000 r min^−1 for 10 min. The drug concentration in the aqueous phase (ρw) was calculated via the standard curve according to the peak area. DD5 (4.5 mg) was dissolved in 50 ml of water-saturated n-octanol solution to prepare a solution with a concentration of 90 mg l^−1. Other methods were the same as those for DD4 [14].

[3] = system: human aortic vascular smooth muscle cells (HAVSMCs); test: Drug absorption in human aortic vascular smooth muscle cells (HPLC of cell supernatant); format: in vitro ADME; conditions: for value (drug concentration in cell supernatant): dosing DD4 171, DD5 120 ug/mL
Protocol: (§2) HAVSMCs were obtained from resuscitation in cryopreservation tubes. HAVSMCs at passages 3–10 were seeded at a density of 10^5 in 6-well plates, 2 ml per well. The cells were cultured at 37°C in a 5% carbon dioxide incubator for 24 h to adhere to the cell wall; cells were cultured in serum-free DMEM for 24 h. The cells were synchronized, the supernatant was carefully aspirated and different concentrations of drug solution were added to the DMEM culture medium containing 10% serum. Equal amounts of DMEM culture medium without drugs were added to the blank group. Each group was set up in triplicate and further cultured. The cultures were terminated at 0.5, 1, 6, 12, 24 or 48 h. Cell culture supernatants were collected and stored at −80°C for further analysis.
Cell supernatants were thawed at room temperature and vortexed for 1 min. To 50 µl of the cell supernatant, 50 µl of methanol was added and the mixtures were mixed uniformly by eddy current. Ethyl acetate (1 ml) was added to the mixture and vortexed for 3 min. Ethyl acetate was separated by cooled centrifugation at 3000 r min^−1 and dried with nitrogen, and the residue was dissolved in 500 µl of methanol before injection for analysis.
Mobile phase: methanol-phosphoric acid solution (0.4%) (1 : 1); flow rate: 0.5 ml min^−1; injection volume: 10 µl; wavelength: 230 nm or 254 nm; column temperature 25°C.
Cell supernatants were thawed and vortexed for 1 min. Drug-added supernatant (50 µl) was treated by the same method as the pre-treatment of cell samples described in §4.2.
The absorption and utilization rates of DD4 and DD5 were calculated by the formula (6.1), with the reduction of drug concentration in the cell culture medium taken as the absorption amount of drug by cells. The initial drug concentration was c0, and the concentration in the cell supernatant at other time points is denoted as c. […] With increasing time, the cell absorption rate of the drug was maintained at about 60%. The main reason for the differences in absorption of DD4 and DD5 might be the length of the substituent group (methyl, ethyl) on the 7-position:6.1 absorption rate=c0−c/c0×100%.

[4] = system: human aortic vascular smooth muscle cells (HAVSMCs); test: Cell metabolism in HAVSMCs by HPLC-MS; format: in vitro ADME; conditions: for metabolite identified (chemical name): HAVSMC lysate, 24 h incubation, HPLC-MS negative ion mode
Protocol: as §2
Mobile phase: methanol-formic acid (1 : 1); flow rate: 0.5 ml min^−1; injection volume: 10 µl; wavelength: 254 nm; column temperature: 25°C.
A triple quadrupole tandem precision mass spectrometer (Agilent 6430) with an […] source and a negative ion mode was used for precise determination. The full mass spectrum data were obtained in the range of m/z 50–1000. The optimal mass spectrum parameters were as follows: the capillary voltage was 4.0 kV; the injection cone voltage was 35 V; the desolvation gas flow (N2) rate was 900 l h^−1; the injection cone gas flow (N2) rate was 50 l h^−1; the desolvation temperature was 350°C; the ion source temperature was 150°C; the collision gas in collision induced dissociation (CID) mode was helium with high purity; the inlet pressure was set at 40 psi; the CID collision energy of the standard was 5–35 eV and the cracking voltage was 135 V.
The cell supernatant was thawed and vortexed for 0.5 min. Cell supernatant (50 µl) and […] (50 µl) were added to a 2 ml centrifuge tube and vortexed for 3 min. Ammonium dihydrogen phosphate (100 µl, 0.4%) and 1 ml of ethyl acetate were added, and the sample was vortexed for 3 min. The mixture was centrifuged at 3000 r min^−1 for 10 min. The supernatant (95 µl) was aspirated and dried by N2 flow. […] (500 µl) was added and the sample was vortexed for 0.5 min. After filtration over a 0.45 µm organic membrane, HPLC-MS analysis was carried out.
Cells from the −80°C stock were thawed at room temperature, and 1 ml of thawed cell lysate was added into each well of a 6-well plate. From each group, 0.5 ml of cell lysate was taken; 50 µl of […], 100 µl of ammonium dihydrogen phosphate (0.4%) and 1 ml of ethyl acetate were added and samples were vortexed for 3 min. Lysate (95 µl) was aspirated and dried by N2 flow. […] (500 µl) was added and samples were vortexed for 0.5 min. After filtration over a 0.45 µm organic membrane, HPLC-MS analysis was carried out.

[5] = Solubility in water, methanol, cyclohexane and ethyl acetate by HPLC; format: physicochemical; conditions: organic solvent or mixture, thermodynamic from solid, head: hexane (text: cyclohexane), 37 °C, shaken 48 h

Q: With `CCOc1ccc2c(=O)c(-c3ccc(OS(=O)(=O)c4ccc5ccccc5c4)cc3)coc2c1` [DD5] as the compound, how does the solubility at 48 h ([1]; organic solvent or mixture, thermodynamic from solid, methanol, 37 °C, shaken 48 h, HPLC, read-out: solubility methanol) read?
A: 2470 ± 72.4 µg/mL (≈ 5230 µM)

Q: And the solubility at 48 h ([1]; thermodynamic from solid, water, 37 °C, shaken 48 h, HPLC, read-out: solubility water)?
A: < 0.059 µg/mL

Q: And the “solubility in water” value ([1]; water, 37 °C)?
A: too poor to be detected

Q: What about the solubility at 48 h ([1]; water, Table 5, read-out: solubility in water) of the same compound?
A: < 0.059 µg/mL

Q: What about the lgP ([2]; 37 °C, HPLC of aqueous phase) of the same compound?
A: —^b

Q: And the “apparent lipid-hydro partition coefficient found” value ([2]; HPLC)?
A: —^b

Q: What about the “time of peak (maximum) absorption” value [3] of the same compound?
A: 1 h

Q: What about the “value (drug concentration in cell supernatant)” value (“value” for short) ([3]; 0.5 h) of the same compound?
A: 88.31 ± 4.25 µg/mL

Q: And the “value” value ([3]; 1 h)?
A: 11.59 ± 0.08 µg/mL

Q: What about the “value” value ([3]; 6 h) of the same compound?
A: 44.60 ± 3.91 µg/mL

Q: And the “value” value ([3]; 12 h)?
A: 47.13 ± 15.99 µg/mL

Q: And the “value” value ([3]; 24 h)?
A: 50.34 ± 1.31 µg/mL

Q: What about the “value” value ([3]; 48 h) of the same compound?
A: 29.29 ± 2.50 µg/mL

Q: What about the “maximum cell absorption rate relative to DAI” value ([3]; compared with DAI) of the same compound?
A: 4.5 times and 4.3–4.5 times

Q: And the “absorptivity (maximum absorption rate)” value ([3]; maximum (at 1 h))?
A: 90.34%

Q: And the “metabolite identified (chemical name)” value ([4]; metabolite DAI)?
A: daidzein

Q: And the “metabolite identified (chemical name)” value ([4]; metabolite M2)?
A: daidzein-4'-naphthalene sulphonate

Q: What about the “metabolite identified (chemical name)” value ([4]; metabolite M4 or/and M4a) of the same compound?
A: daidzein-4'-glucoside or daidzein-7-glucoside

Q: What about the “metabolite identified (chemical name)” value ([4]; metabolite M5) of the same compound?
A: 7-ethyldaidzein

Q: And the “metabolite identified (chemical name)” value ([4]; metabolite M6)?
A: daidzein-7-ethyl-4'-glucoside

Q: And the “metabolite identified (chemical name)” value ([4]; metabolite M7)?
A: daidzein-7-ethyl-4'-sulphonic acid

Q: And the “metabolites found in cell lysate” value ([4]; HAVSMCs incubated 24 h, HPLC-MS, also found in supernatant)?
A: Six metabolites were found

Q: What about the “redox products in HAVSMCs” value ([4]; preliminary analysis of metabolic components) of the same compound?
A: no redox products

Q: What about the melting point of the same compound?
A: 151 to 153 °C

Q: What about the solubility at 48 h [5] of the same compound?
A: 69.7 ± 20.8 µg/mL (≈ 148 µM)

— publication PMC7890489, “Study on pharmacological properties and cell absorption metabolism of novel daidzein napsylates” (Royal Society Open Science, 2021)
